Legend:
ΔF508-CFTR [1] = target: T1, ΔF508-CFTR (Homo sapiens, UniProt P13569, DEL508-508); experiment: CFTR cell surface levels using HRP-tagged ΔF508-CFTR expressing CFBE cells, in the presence of a co-corrector; assay type: cell-based; settings: HRP-tagged ΔF508-CFTR expressing CFBE cells, in the presence of 3 μM co-corrector; for EC50: read-out: EC50
T1 construct: host or cells: CFBE41o-, doxycycline-inducible
Method in brief: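 Cells were seeded with 0.5 μg/mL doxycycline and held 68 h at 37 °C. Test compounds plus 3 μM co-corrector (final 0.1% DMSO) were then added for 20 h at 33 °C. Washed cells received HRP substrate, and luminescence was normalized between DMSO and 3 μM co-corrector controls.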

ΔF508-CFTR [2] = target: T1, ΔF508-CFTR; experiment: CFTR cell surface levels using HRP-tagged ΔF508-CFTR expressing CFBE cells, intrinsic corrector capacity; assay type: cell-based; settings: for EC50: read-out: EC50
Method in brief: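 Here the cells express ΔF508-CFTR with horseradish peroxidase inserted in extracellular loop 4, so only rescued channel at the surface gives luminescent signal. Compounds act on their own, 20 h at the reduced temperature of 33 °C; values are percent activity relative to DMSO and a 3 μM corrector.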

[3] = HRP-tagged ΔF508-CFTR expressing CFBE cells, intrinsic corrector capacity (no co-corrector), 33° C., 20 hours
[4] = HRP-tagged ΔF508-CFTR CFBE cells, compound alone (intrinsic corrector capacity), 20 hours at 33° C.

T1 sequence (P13569 with tags, fused parts or gaps DEL508-508): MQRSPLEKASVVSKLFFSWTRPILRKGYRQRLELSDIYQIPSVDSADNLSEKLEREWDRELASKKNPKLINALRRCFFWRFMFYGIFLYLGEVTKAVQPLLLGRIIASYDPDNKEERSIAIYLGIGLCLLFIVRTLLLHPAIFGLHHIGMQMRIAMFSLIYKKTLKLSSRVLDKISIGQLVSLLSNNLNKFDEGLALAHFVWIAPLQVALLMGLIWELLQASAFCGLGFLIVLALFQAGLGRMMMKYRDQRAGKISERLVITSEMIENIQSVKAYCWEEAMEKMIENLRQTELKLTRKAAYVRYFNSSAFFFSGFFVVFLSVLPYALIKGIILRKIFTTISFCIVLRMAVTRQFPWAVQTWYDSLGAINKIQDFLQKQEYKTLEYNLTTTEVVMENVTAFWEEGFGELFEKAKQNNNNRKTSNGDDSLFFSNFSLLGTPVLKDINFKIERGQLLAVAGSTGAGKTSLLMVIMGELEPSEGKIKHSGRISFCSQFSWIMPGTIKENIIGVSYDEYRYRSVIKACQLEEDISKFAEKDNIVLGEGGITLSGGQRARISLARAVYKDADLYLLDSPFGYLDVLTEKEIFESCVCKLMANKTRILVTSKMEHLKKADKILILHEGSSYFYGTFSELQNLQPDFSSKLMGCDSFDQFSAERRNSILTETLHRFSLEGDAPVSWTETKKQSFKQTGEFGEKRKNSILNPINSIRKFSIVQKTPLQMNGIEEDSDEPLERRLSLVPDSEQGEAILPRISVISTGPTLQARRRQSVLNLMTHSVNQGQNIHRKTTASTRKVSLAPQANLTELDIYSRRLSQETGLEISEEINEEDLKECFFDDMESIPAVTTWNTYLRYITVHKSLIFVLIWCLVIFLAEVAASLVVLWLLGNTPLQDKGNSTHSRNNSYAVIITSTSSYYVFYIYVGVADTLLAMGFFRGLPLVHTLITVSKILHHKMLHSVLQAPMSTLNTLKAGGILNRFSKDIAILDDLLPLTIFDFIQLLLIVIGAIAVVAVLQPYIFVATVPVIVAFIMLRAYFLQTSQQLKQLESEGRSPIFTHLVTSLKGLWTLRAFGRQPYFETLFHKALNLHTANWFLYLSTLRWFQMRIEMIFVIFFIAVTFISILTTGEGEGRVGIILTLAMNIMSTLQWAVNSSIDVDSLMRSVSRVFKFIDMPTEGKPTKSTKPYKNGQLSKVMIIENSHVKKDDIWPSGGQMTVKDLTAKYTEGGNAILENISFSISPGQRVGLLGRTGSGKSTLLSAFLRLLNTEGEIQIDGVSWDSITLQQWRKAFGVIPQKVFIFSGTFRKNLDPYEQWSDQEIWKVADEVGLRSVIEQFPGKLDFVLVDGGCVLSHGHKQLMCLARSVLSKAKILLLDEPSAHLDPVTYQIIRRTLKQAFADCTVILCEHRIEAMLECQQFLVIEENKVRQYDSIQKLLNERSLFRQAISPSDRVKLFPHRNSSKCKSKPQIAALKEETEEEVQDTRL

| Structure (SMILES) | % Activation (ΔF508-CFTR [1]) [%] | EC50 (ΔF508-CFTR [1]) [nM] | % Activation (ΔF508-CFTR [2]; [3]) [%] | EC50 (ΔF508-CFTR [2]; [3]) [nM] | % Activation (ΔF508-CFTR [2]; [4]) [%] | EC50 (ΔF508-CFTR [2]; [4]) [nM] |
| --- | --- | --- | --- | --- | --- | --- |
| O=C(O)c1cc(N2CCC3C(CCN3C3CCOCC3)C2)c2c(C3CCC3)nn(-c3ccc(F)cc3)c2n1 (stereo not drawn) [compound 903, 3-cyclobutyl-1-(4-fluorophenyl)-4-[1-(oxan-4-yl)octahydro-5H-pyrrolo[3,2-c]pyridin-5-yl]-1H-pyrazolo[3,4-b]pyridine-6-carboxylic acid] | 480.55 | 108 | 275.8 | 331 |  |  |
| O=C(O)c1cc(N2CCC3(CC2)CCN(C2COC2)CC3)c2c(C3CCC3)nn(-c3ccc(F)cc3)c2n1 [compound 904, 3-cyclobutyl-1-(4-fluorophenyl)-4-[9-(oxetan-3-yl)-3,9-diazaspiro[5.5]undecan-3-yl]-1H-pyrazolo[3,4-b]pyridine-6-carboxylic acid] | 372.85 | 102 | 200.1 | 237 |  |  |
| O=C(O)c1cc(N2CCC(N3CCOCC3)CC2)c2c(C3CCC3)nn(-c3cc(F)cc(F)c3)c2n1 [compound 905, 3-cyclobutyl-1-(3,5-difluorophenyl)-4-[4-(morpholin-4-yl)piperidin-1-yl]-1H-pyrazolo[3,4-b]pyridine-6-carboxylic acid] | 466.55 | 145 | 278.8 | 362 |  |  |
| O=C(O)c1cc(N2CCC(N3CCOCC3)CC2)c2c(C3CCC3)nn(-c3ccc4c(c3)OC(F)(F)O4)c2n1 [compound 906, 3-cyclobutyl-1-(2,2-difluoro-2H-1,3-benzodioxo1-5-yl)-4-[4-(morpholin-4-yl)piperidin-1-yl]-1H-pyrazolo[3,4-b]pyridine-6-carboxylic acid] | 485.34 | 72.8 | 276.92 | 146 |  |  |
| O=C(O)c1cc(N2CCC(N3CCOCC3)CC2)c2c(C3CCC3)nn(-c3ccc(F)c(F)c3)c2n1 [compound 907, 3-cyclobutyl-1-(3,4-difluorophenyl)-4-[4-(morpholin-4-yl)piperidin-1-yl]-1H-pyrazolo[3,4-b]pyridine-6-carboxylic acid] | 483.65 | 183 | 270.7 | 260 |  |  |
| COc1cc(-n2nc(C3CCC3)c3c(N4CCC(N5CCOCC5)CC4)cc(C(=O)O)nc32)ccc1F [compound 908, 3-cyclobutyl-1-(4-fluoro-3-methoxyphenyl)-4-[4-(morpholin-4-yl)piperidin-1-yl]-1H-pyrazolo[3,4-b]pyridine-6-carboxylic acid] | 486.75 | 171 | 220.2 | 256 |  |  |
| O=C(O)c1cc(N2CCC(N3CCOCC3)CC2)c2c(C3CCC3)nn(-c3ccc(OC(F)(F)F)cc3)c2n1 [compound 909, 3-cyclobutyl-4-[4-(morpholin-4-yl)piperidin-1-yl]-1-[4-(trifluoromethoxy)phenyl]-1H-pyrazolo[3,4-b]pyridine-6-carboxylic acid] | 498.4 | 56.2 | 277.7 | 134 |  |  |
| O=C(O)c1cc(N2CCC(N3CCOCC3)CC2)c2c(C3CCC3)nn(-c3ccc4c(c3)CC4)c2n1 [compound 911, 1-(bicyclo[4.2.0]octa-1,3,5-trien-3-yl)-3-cyclobutyl-4-[4-(morpholin-4-yl)piperidin-1-yl]-1H-pyrazolo[3,4-b]pyridine-6-carboxylic acid] | 405.9 | 74 | 222.45 | 190 |  |  |
| COc1ccc(-n2nc(C3CCC3)c3c(N4CCC(N5CCOCC5)CC4)cc(C(=O)O)nc32)cc1F [compound 912, 3-cyclobutyl-1-(3-fluoro-4-methoxyphenyl)-4-[4-(morpholin-4-yl)piperidin-1-yl]-1H-pyrazolo[3,4-b]pyridine-6-carboxylic acid] | 397.9 | 267 | 212.4 | 720 |  |  |
| COc1cc(F)cc(-n2nc(C3CCC3)c3c(N4CCC(N5CCOCC5)CC4)cc(C(=O)O)nc32)c1 [compound 913, 3-cyclobutyl-1-(3-fluoro-5-methoxyphenyl)-4-[4-(morpholin-4-yl)piperidin-1-yl]-1H-pyrazolo[3,4-b]pyridine-6-carboxylic acid] | 531.4 | 163 |  |  | 326.3 | 1150 |
| O=C(O)c1cc(N2CCC(N3CCOCC3)CC2)c2c(C3CCC3)nn(-c3ccc(OC(F)F)cc3)c2n1 [compound 914, 3-cyclobutyl-1-[4-(difluoromethoxy)phenyl]-4-[4-(morpholin-4-yl)piperidin-1-yl]-1H-pyrazolo[3,4-b]pyridine-6-carboxylic acid] | 429.25 | 173 |  |  | 228.2 | 546 |
| O=C(O)c1cc(N2CCC(N3CCOCC3)CC2)c2c(C3CCC3)nn(-c3cc(F)ccc3F)c2n1 [compound 916, 3-cyclobutyl-1-(2,5-difluorophenyl)-4-[4-(morpholin-4-yl)piperidin-1-yl]-1H-pyrazolo[3,4-b]pyridine-6-carboxylic acid] | 362.05 | 1380 |  |  | 165.25 | 1670 |
| O=C(O)c1cc(N2CCC(N3CCOCC3)CC2)c2c(C3CCC3)nn(-c3ccc(OCCF)nc3)c2n1 [compound 917] | 306.95 | 1670 |  |  | 116.67 | 1660 |
| O=C(O)c1cc(N2CCC(N3CCOCC3)CC2)c2c(C3CCC3)nn(-c3ccnc(OC4CCOCC4)c3)c2n1 [compound 918, 3-cyclobutyl-4-[4-(morpholin-4-yl)piperidin-1-yl]-1-{2-[(oxan-4-yl)oxy]pyridin-4-yl}-1H-pyrazolo[3,4-b]pyridine-6-carboxylic acid] | 352.1 | 479 |  |  | 149.75 | 712 |
| O=C(O)c1cc(N2CCC(N3CCOCC3)CC2)c2c(C3CCC3)nn(-c3ccnc(OCC4CCOCC4)c3)c2n1 [compound 919, 3-cyclobutyl-4-[4-(morpholin-4-yl)piperidin-1-yl]-1-{2-[(oxan-4-yl)methoxy]pyridin-4-yl}-1H-pyrazolo[3,4-b]pyridine-6-carboxylic acid] | 416.35 | 256 |  |  | 198.2 | 490 |
| CC(C)Oc1nn(C2CCCCC2)c2nc(C(=O)O)cc(-c3ccc(C#N)cc3)c12 [compound 923, 4-(4-cyanophenyl)-1-cyclohexyl-3-[(propan-2-yl)oxy]-1H-pyrazolo[3,4-b]pyridine-6-carboxylic acid] | 263 | 380 |  |  | 60.466 | 355 |
| COC1CCN(C2CCN(c3cc(C(=O)O)nc4c3c(O)nn4-c3ccc(F)cc3)CC2)CC1 [compound 925, 1-(4-fluorophenyl)-3-hydroxy-4-(4-methoxy[1,4′-bipiperidin]-1′-yl)-1H-pyrazolo[3,4-b]pyridine-6-carboxylic acid] | 126.05 |  |  |  | 11.745 |  |
| COC1CCN(C2CCN(c3cc(C(=O)O)nc4c3c(OC(C)C)nn4-c3ccc(F)cc3)CC2)CC1 [compound 926, 1-(4-fluorophenyl)-4-(4-methoxy[1,4′-bipiperidin]-1′-yl)-3-[(propan-2-yl)oxy]-1H-pyrazolo[3,4-b]pyridine-6-carboxylic acid] | 486.6 | 340 |  |  | 240.2 | 521 |
| CN1CCC2(CC1)CCN(c1cc(C(=O)O)nc3c1c(C1CCC1)nn3-c1ccc(F)cc1)CC2 [compound 928, 3-cyclobutyl-1-(4-fluorophenyl)-4-(9-methyl-3,9-diazaspiro[5.5]undecan-3-yl)-1H-pyrazolo[3,4-b]pyridine-6-carboxylic acid] | 362.2 | 2410 |  |  | 284.7 | 4030 |
| CCOC(=O)N1CCN(c2cc(C(=O)O)nc3c2c(C2CCC2)nn3-c2ccc(F)cc2)CC1 [compound 929, 3-cyclobutyl-4-[4-(ethoxycarbonyl)piperazin-1-yl]-1-(4-fluorophenyl)-1H-pyrazolo[3,4-b]pyridine-6-carboxylic acid] | 560 | 83.2 |  |  | 474.3 | 181 |

Source: US9796711B2, “Substituted pyrazolo[3,4-b]pyridin-6-carboxylic acids and method of use” (AbbVie S.àr.l., priority 2015, dated 2017)
